Data as given in patent US20230372498A1, “PLK1 SELECTIVE DEGRADATION INDUCING COMPOUND” (UPPTHERA, priority 2020, published 2023).
Where two headings read alike, the source gives them in different places.

Molecular target: T1, PLK1 (Homo sapiens, UniProt P53350)
T1 construct: endogenous in cells; host or cells: HeLa
Experiment: PLK1 protein degradation in HeLa cells, Western blotting (PLK1/GAPDH ratio)
Type: cell-based
Settings: for DC50 / Dmax: 6 hours compound incubation; for DC50: measured only if the grade of Dmax is A or B; for Dmax: thymidine block and release, 10 points three-fold from 3 μM, PLK1 to GAPDH ratio
Method in brief: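 PLK1 level measured by Western blot as PLK1/GAPDH in HeLa lysates (15 μg protein per lane). Cells were blocked with 2 mM thymidine 24 h, released 4 h, and exposed 6 h to compound, 10 concentrations, 3-fold steps, top 3 μM.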

T1 sequence (P53350 whole entry): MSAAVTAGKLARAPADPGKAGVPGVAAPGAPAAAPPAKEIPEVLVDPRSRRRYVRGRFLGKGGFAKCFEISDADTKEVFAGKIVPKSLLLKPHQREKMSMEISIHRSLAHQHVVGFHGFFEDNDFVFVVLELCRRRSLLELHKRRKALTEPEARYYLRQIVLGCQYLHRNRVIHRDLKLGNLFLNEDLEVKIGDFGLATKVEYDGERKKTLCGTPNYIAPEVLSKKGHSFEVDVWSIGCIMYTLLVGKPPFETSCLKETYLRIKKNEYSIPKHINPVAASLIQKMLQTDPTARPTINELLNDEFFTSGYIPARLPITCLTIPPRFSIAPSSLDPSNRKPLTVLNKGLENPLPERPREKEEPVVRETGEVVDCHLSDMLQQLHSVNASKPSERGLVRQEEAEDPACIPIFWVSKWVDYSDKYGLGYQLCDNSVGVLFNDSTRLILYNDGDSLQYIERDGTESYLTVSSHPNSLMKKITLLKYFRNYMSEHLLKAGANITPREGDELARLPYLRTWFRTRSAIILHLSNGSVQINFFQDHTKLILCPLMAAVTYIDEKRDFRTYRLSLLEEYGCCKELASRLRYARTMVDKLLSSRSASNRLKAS

SMILES	DC50 [nM]	Dmax (read-out: Dmax) [%]	PLK1 protein degradability (western blot, FIG. 1 and 2) (in comparison with Comparative Compounds)	Dmax
COc1cc(C(=O)NC2CCN(CCOCCCCCCCCOCCNc3cccc4c3C(=O)N(C3CCC(=O)NC3=O)C4=O)CC2)c(F)cc1Nc1ncc2c(n1)N(C1CCCC1)CC(F)(F)C(=O)N2C (centres unmarked) [Compound 22, 4-((9-cyclopentyl-7,7-difluoro-5-methyl-6-oxo-6,7,8,9-tetrahydro-5H-pyrimido[4,5-b][1,4]diazepin-2-yl)amino)-N-(1-(2-((8-(2-((2-(2,6-dioxopiperidin-3-yl)-1,3-dioxoisoindolin-4-yl)amino)ethoxy)octyl)oxy)ethyl)piperidin-4-yl)-2-fluoro-5-methoxybenzamide]	≤ 500	60 to 80	–	–
COc1cc(C(=O)NC2CCN(Cc3cn(CCOCCOCCOCCNc4cccc5c4C(=O)N(C4CCC(=O)NC4=O)C5=O)nn3)CC2)c(F)cc1Nc1ncc2c(n1)N(C1CCCC1)CC(F)(F)C(=O)N2C (centres unmarked) [Compound 45, 4-((9-cyclopentyl-7,7-difluoro-5-methyl-6-oxo-6,7,8,9-tetrahydro-5H-pyrimido[4,5-b][1,4]diazepin-2-yl)amino)-N-(1-((1-(2-(2-(2-(2-((2-(2,6-dioxopiperidin-3-yl)-1,3-dioxoisoindolin-4-yl)amino)ethoxy)ethoxy)ethoxy)ethyl)-1H-1,2,3-triazol-4-yl)methyl)piperidin-4-yl)-2-fluoro-5-methoxybenzamide]	≤ 50	≥ 80	–	–
CN1C(=O)C(F)(F)CN(C2CCCC2)c2nc(Nc3cc(F)c(C(=O)NC4CCN(CCOCCOCCNc5cccc6c5C(=O)N(C5CCC(=O)NC5=O)C6=O)CC4)cc3OC(F)(F)F)ncc21 (centres unmarked) [Example 99, 4-((9-cyclopentyl-7,7-difluoro-5-methyl-6-oxo-6,7,8,9-tetrahydro-5H-pyrimido[4,5-b][1,4]diazepin-2-yl)amino)-N-(1-(2-(2-(2-((2-(2,6-dioxopiperidin-3-yl)-1,3-dioxoisoindolin-4-yl)amino)ethoxy)ethoxy)ethyl)piperidin-4-yl)-2-fluoro-5-(trifluoromethoxy)benzamide]	≤ 500	60 to 80	–	–
COc1cc(C(=O)NC2CCN(C(=O)CCN3CCN(c4cccc5c4C(=O)N(C4CCC(=O)NC4=O)C5=O)CC3)CC2)c(F)cc1Nc1ncc2c(n1)N(C1CCCC1)CC(F)(F)C(=O)N2C (centres unmarked) [Compound 71, 4-((9-cyclopentyl-7,7-difluoro-5-methyl-6-oxo-6,7,8,9-tetrahydro-5H-pyrimido[4,5-b][1,4]diazepin-2-yl)amino)-N-(1-(3-(4-(2-(2,6-dioxopiperidin-3-yl)-1,3-dioxoisoindolin-4-yl)piperazin-1-yl)propanoyl)piperidin-4-yl)-2-fluoro-5-methoxybenzamide]	≤ 50	≥ 80	–	–
COc1cc(C(=O)NC2CCN(CCOCCOCCNc3cccc4c3C(=O)N(C3CCC(=O)NC3=O)C4=O)CC2)c(F)cc1Nc1ncc2c(n1)N(C1CCCC1)CC(F)(F)C(=O)N2C (centres unmarked) [Compound 2, 4-((9-cyclopentyl-7,7-difluoro-5-methyl-6-oxo-6,7,8,9-tetrahydro-5H-pyrimido[4,5-b][1,4]diazepin-2-yl)amino)-N-(1-(2-(2-(2-((2-(2,6-dioxopiperidin-3-yl)-1,3-dioxoisoindolin-4-yl)amino)ethoxy)ethoxy)ethyl)piperidin-4-yl)-2-fluoro-5-methoxybenzamide]	≤ 50	≥ 80	excellent PLK1 protein degradability	–
COc1cc(C(=O)NC2CCN(CCOCCOCC(=O)Nc3cccc4c3C(=O)N(C3CCC(=O)NC3=O)C4=O)CC2)c(F)cc1Nc1ncc2c(n1)N(C1CCCC1)CC(F)(F)C(=O)N2C (centres unmarked) [Compound 26, 4-((9-cyclopentyl-7,7-difluoro-5-methyl-6-oxo-6,7,8,9-tetrahydro-5H-pyrimido[4,5-b][1,4]diazepin-2-yl)amino)-N-(1-(2-(2-(2-((2-(2,6-dioxopiperidin-3-yl)-1,3-dioxoisoindolin-4-yl)amino)-2-oxoethoxy)ethoxy)ethyl)piperidin-4-yl)-2-fluoro-5-methoxybenzamide]	–	< 60	–	–
COc1cc(C(=O)NC2CCN(C(=O)COCCOCCNc3cccc4c3CN(C3CCC(=O)NC3=O)C4=O)C2)c(F)cc1Nc1ncc2c(n1)N(C1CCCC1)CC(F)(F)C(=O)N2C (centres unmarked) [Compound 150, 4-((9-cyclopentyl-7,7-difluoro-5-methyl-6-oxo-6,7,8,9-tetrahydro-5H-pyrimido[4,5-b][1,4]diazepin-2-yl)amino)-N-(1-(2-(2-(2-((2-(2,6-dioxopiperidin-3-yl)-1-oxoisoindolin-4-yl)amino)ethoxy)ethoxy)acetyl)pyrrolidin-3-yl)-2-fluoro-5-methoxybenzamide]	≤ 50	≥ 80	–	–
COc1cc(C(=O)N[C@H]2CCN(C(=O)CCC(=O)N3CCN(c4ccc5c(c4)C(=O)N(C4CCC(=O)NC4=O)C5=O)CC3)C2)c(F)cc1Nc1ncc2c(n1)N(C1CCCC1)CC(F)(F)C(=O)N2C (stereo partly drawn) [Compound 144, 4-((9-cyclopentyl-7,7-difluoro-5-methyl-6-oxo-6,7,8,9-tetrahydro-5H-pyrimido[4,5-b][1,4]diazepin-2-yl)amino)-N-((3S)-1-(4-(4-(2-(2,6-dioxopiperidin-3-yl)-1,3-dioxoisoindolin-5-yl)piperazin-1-yl)-4-oxobutanoyl)pyrrolidin-3-yl)-2-fluoro-5-methoxybenzamide]	≤ 50	≥ 80	–	–
COc1cc(C(=O)NC2CCN(CCCCCCCCCNc3cccc4c3C(=O)N(C3CCC(=O)NC3=O)C4=O)CC2)c(F)cc1Nc1ncc2c(n1)N(C1CCCC1)CC(F)(F)C(=O)N2C (centres unmarked) [Compound 13]	≤ 500	–	–	B (B: Dmax is 80% or less and 60% or more)
COc1cc(C(=O)NC2CCN(CCOCCN(C)CCNc3cccc4c3C(=O)N(C3CCC(=O)NC3=O)C4=O)CC2)c(F)cc1Nc1ncc2c(n1)N(C1CCCC1)CC(F)(F)C(=O)N2C (centres unmarked) [Compound 49, 4-((9-cyclopentyl-7,7-difluoro-5-methyl-6-oxo-6,7,8,9-tetrahydro-5H-pyrimido[4,5-b][1,4]diazepin-2-yl)amino)-N-(1-(2-(2-((2-((2-(2,6-dioxopiperidin-3-yl)-1,3-dioxoisoindolin-4-yl)amino)ethyl)(methyl)amino)ethoxy)ethyl)piperidin-4-yl)-2-fluoro-5-methoxybenzamide]	≤ 500	60 to 80	–	–
COc1cc(C(=O)NC2CCN(CC3CCN(c4cccc5c4C(=O)N(C4CCC(=O)NC4=O)C5=O)CC3)CC2)c(F)cc1Nc1ncc2c(n1)N(C1CCCC1)CC(F)(F)C(=O)N2C (centres unmarked) [Compound 65, 4-((9-cyclopentyl-7,7-difluoro-5-methyl-6-oxo-6,7,8,9-tetrahydro-5H-pyrimido[4,5-b][1,4]diazepin-2-yl)amino)-N-(1-((1-(2-(2,6-dioxopiperidin-3-yl)-1,3-dioxoisoindolin-4-yl)piperidin-4-yl)methyl)piperidin-4-yl)-2-fluoro-5-methoxybenzamide]	≤ 50	≥ 80	–	–
COc1cc(C(=O)NC2CCN(CCCCCCCC(=O)Nc3cccc4c3C(=O)N(C3CCC(=O)NC3=O)C4=O)CC2)c(F)cc1Nc1ncc2c(n1)N(C1CCCC1)CC(F)(F)C(=O)N2C (centres unmarked) [Compound 38, 4-((9-cyclopentyl-7,7-difluoro-5-methyl-6-oxo-6,7,8,9-tetrahydro-5H-pyrimido[4,5-b][1,4]diazepin-2-yl)amino)-N-(1-(8-((2-(2,6-dioxopiperidin-3-yl)-1,3-dioxoisoindolin-4-yl)amino)-8-oxooctyl)piperidin-4-yl)-2-fluoro-5-methoxybenzamide]	≤ 500	60 to 80	–	–
COc1cc(C(=O)N[C@@H]2CCN(C(=O)CCCCN3CCN(c4cccc5c4C(=O)N(C4CCC(=O)NC4=O)C5=O)CC3)C2)c(F)cc1Nc1ncc2c(n1)N(C1CCCC1)CC(F)(F)C(=O)N2C (stereo partly drawn) [Compound 134, 4-((9-cyclopentyl-7,7-difluoro-5-methyl-6-oxo-6,7,8,9-tetrahydro-5H-pyrimido[4,5-b][1,4]diazepin-2-yl)amino)-N-((3R)-1-(5-(4-(2-(2,6-dioxopiperidin-3-yl)-1,3-dioxoisoindolin-4-yl)piperazin-1-yl)pentanoyl)pyrrolidin-3-yl)-2-fluoro-5-methoxybenzamide]	≤ 50	≥ 80	–	–
COc1cc(C(=O)NC2CCN(CC(=O)NCCOCCOCCOCCNc3cccc4c3C(=O)N(C3CCC(=O)NC3=O)C4=O)CC2)c(F)cc1Nc1ncc2c(n1)N(C1CCCC1)CC(F)(F)C(=O)N2C (centres unmarked) [Compound 36, 4-((9-cyclopentyl-7,7-difluoro-5-methyl-6-oxo-6,7,8,9-tetrahydro-5H-pyrimido[4,5-b][1,4]diazepin-2-yl)amino)-N-(1-(14-((2-(2,6-dioxopiperidin-3-yl)-1,3-dioxoisoindolin-4-yl)amino)-2-oxo-6,9,12-trioxa-3-azatetradecyl)piperidin-4-yl)-2-fluoro-5-methoxybenzamide]	≤ 50	≥ 80	–	–
COc1cc(C(=O)N[C@@H]2CCN(C(=O)CCCN3CCN(c4cccc5c4C(=O)N(C4CCC(=O)NC4=O)C5=O)CC3)C2)c(F)cc1Nc1ncc2c(n1)N(C1CCCC1)CC(F)(F)C(=O)N2C (stereo partly drawn) [Compound 133, 4-((9-cyclopentyl-7,7-difluoro-5-methyl-6-oxo-6,7,8,9-tetrahydro-5H-pyrimido[4,5-b][1,4]diazepin-2-yl)amino)-N-((3R)-1-(4-(4-(2-(2,6-dioxopiperidin-3-yl)-1,3-dioxoisoindolin-4-yl)piperazin-1-yl)butanoyl)pyrrolidin-3-yl)-2-fluoro-5-methoxybenzamide]	≤ 50	≥ 80	–	–
COc1cc(C(=O)N[C@H]2CCN(CC(=O)NCCCNc3cccc4c3C(=O)N(C3CCC(=O)NC3=O)C4=O)C2)c(F)cc1Nc1ncc2c(n1)N(C1CCCC1)CC(F)(F)C(=O)N2C (some centres unmarked) [Compound 122]	≤ 50	≥ 80	–	–
